Values joined by “and” are separate entries in the source; they are usually repeats but may differ in a detail not shown here. Identical values can stand only once. “Also recorded” adds a separate entry of the source. Like-named read-outs stand apart in the source and are kept apart here. Where a SMILES comes first, the peptide text is derived from it. [ ]: non-standard residue; d: D form. Ahx = NCCCCCC(=O)O
What was measured:
Abeta 1-42 globulomer [1] = biological target: T1, Abeta 1-42 globulomer (Homo sapiens, UniProt P05067); experiment: Globulomer capture assay in CSF (Example 6); format: binding; conditions: 4 ng/mL globulomer spiked; FIG. 29
T1 construct: beta amyloid (1-42) was monomerized with incubation in hexafluoroisopropanol

Abeta 1-42 globulomer [2] = biological target: T1, Abeta 1-42 globulomer; experiment: Globulomer capture assay in CSF (Example 6); format: binding; conditions: Abeta42 globulomer spiked into CSF; reagents on beads
Description: A series of new potential aggregate-specific binding reagents were designed as shown below and conjugated onto magnetic Dynal M270 beads as described in Example 2. Typically 7-12 nmol of ligand (each candidate aggregate-specific binding reagent) was coated onto 1 mg of beads.
Aliquots of the beads (typically 3 ul) were added to wells of a 96 well plate, followed by sample (with or without Abeta 1-42 globulomer (an Abeta42 oligomer model) spiked in 80:20 CSF:TBSTT, typically 125 ul). The plate was sealed and incubated for 1 hour at 37° C. with shaking. The plate was washed with aqueous solutions of detergent (typically polyethylene glycol sorbitan monolaurate and n-tetradecyl-N,N-dimethyl-3-ammonio-1-propanesulfonate) to remove ubound material and the residual buffer removed. A denaturing solution (typically 0.1-0.15 N NaOH) was added to each well and the plate heated to 80° C. for 30 min with shaking. After cooling the plate to room temperature, a neutralizing buffer (typically 0.12-0.18 M NaH2PO3 in 0.4% TWEEN20,) was added and the plate was shaken briefly at room temperature. The bead eluate was analyzed using either an Aβ42-specific ELISA or the MSD® 96-Well MULTI-SPOT® Human/Rodent [4G8] Abeta Triplex Ultra-Sensitive Assay from Meso Scale Discovery (Gaithersburg, Md.). For the Aβ42-specific assay, the samples were eluted from the beads and a detection antibody (4G8 HRP) was added to a plate bearing the Aβ42-specific antibody 12F4. The plate was incubated for 1 hour, washed, the substrate was added (SuperSignal West Femto Maximum Sensitivity Substrate from Thermo Fisher, Rockville, Md.), and the luminescence was measured. The MSD plate assay was performed in a similar fashion, according to the manufacturer's protocol.
In this experiment the preferred number of charges within a given scaffold was identified. An Ala/Lys peptide framework was utilized, where the inclusion of each Lys residue increases the peptides' net charge by +1. Six hexapeptides with increasing charge (+1→+6), AAAKAA, AAKKAA, AAKKKA, AKKKKA, AKKKKK, and KKKKKK, were prepared and conjugated on the beads. The ability of these beads to capture Abeta 1-42 globulomer spiked at 1 ng/mL into CSF was tested, and the result is shown in FIG. 25. The globulomer capture level (“42 1 ng/ml” or the closed bars) was compared to the background signal of Abeta 1-42 detected in the unspiked CSF (“42 0 ng/ml”) and the background signal of Abeta 1-40 detected in unspiked CSF (“40 0 ng/ml”) or CSF spiked with AB42 oligomers “40 1 ng/ml”. The charge density, as conjugated to the magnetic beads, of each reagent evaluated in this experiment is shown below in Table 8.

Aβ(1-42) aggregates = biological target: T2, Aβ(1-42) aggregates (Homo sapiens, UniProt P05067); format: binding
T2 construct: For Aβ(1-42), 10 nL of 10% brain homogenate was added to each well; from tissue; host or cells: Alzheimer's disease patient brain homogenate

tau aggregates = format: binding, human
normal CSF Aβ42 = biological target: T3, normal CSF Aβ42 (Homo sapiens, UniProt P05067); experiment: NMPA with detergent washing: background from unspiked CSF, Abeta42; format: binding; conditions: for detection of normal CSF Aβ42 (background): 1% detergent wash after PSR1 pulldown, FIG. 35
T3 construct: reduced the detection of normal CSF Aβ42 to the background levels; from tissue; host or cells: pooled normal cerebrospinal fluid
Description: Second, two neutral detergents, polyethylene glycol sorbitan monolaurate (available as TWEEN 20 from Sigma-Aldrich, St. Louis, Mo.) and n-tetradecyl-N,N-dimethyl-3-ammonio-1-propanesulfonate (available as ZWITTERGENT 3-14 from EMI) Chemicals, Gibbstown, N.J.) were used to treat the globulomer-spiked CSF samples that had been contacted with PSR1 beads. For each assay, a mixture of 30 μl of PSR1 beads (coated at about 7-12 nmol PSR1 ligand/mg DYNAL beads, which were used in this example and in the following examples unless otherwise stated) and 70 μl of 1×TBSTT was immediately pipetted into each well on the pulldown plate. The liquid was removed on a magnetic separator. Fifty micro liters of 5×TBSTT was added to each well. The beads were suspended by briefly shaking at 750 rpm. Next […] of TBSTT or CSF sample without globulomer was added to each well. The pulldown plate was sealed and incubated at 37° C. for 1 hour with shaking at 500 rpm. After incubation, the beads were washed 8 times with TBST on the plate washer. After the plate wash, residual TBST buffer was removed from the beads on the magnetic separator. The beads were then incubated with 100 μl of either TBS, 1% Tween20 or 1% Zwittergent 3-14 for 30 minutes at room temperature at 750 rpm, (followed by an additional 8 washes with TBST on the plate washer. After removing residual TBST on the magnetic separator, 20 μl of denaturing solution, typically 0.1-0.15 N NaOH, was added to the beads. The plate was covered with an aluminum foil plate sealer and incubated at 80° C. for 30 minutes with shaking at 750 rpm. After incubation, the plate was cooled to room temperature and twenty micro liters of neutralizing solution, typically 0.12-0.18 M NaH2PO4+0.4% Tween20) was added into each well and the plate was incubated at room temperature for 5 minutes with shaking at 750 rpm. […] MSD Abeta Triplex Assay was preformed according to the manufacturer's instructions.
(§1) A summary of the assay results and calculated signal/noise is shown below in Table 17.

Abeta 42 globulomer = Abeta 42 globulomer (Homo sapiens, UniProt P05067); experiment: NMPA with detergent washing after PSR1 pulldown: globulomer detection; format: binding
normal CSF Aβ40 = biological target: T4, normal CSF Aβ40 (Homo sapiens, UniProt P05067); experiment: NMPA with detergent washing: background from CSF, Abeta40; format: binding; conditions: 1% detergent wash after PSR1 pulldown; FIG. 35
T4 construct: from tissue; host or cells: pooled cerebrospinal fluid (normal or AD)
Description: Second, two neutral detergents, polyethylene glycol sorbitan monolaurate (available as TWEEN 20 from Sigma-Aldrich, St. Louis, Mo.) and n-tetradecyl-N,N-dimethyl-3-ammonio-1-propanesulfonate (available as ZWITTERGENT 3-14 from EMI) Chemicals, Gibbstown, N.J.) were used to treat the globulomer-spiked CSF samples that had been contacted with PSR1 beads. For each assay, a mixture of 30 μl of PSR1 beads (coated at about 7-12 nmol PSR1 ligand/mg DYNAL beads, which were used in this example and in the following examples unless otherwise stated) and 70 μl of 1×TBSTT was immediately pipetted into each well on the pulldown plate. The liquid was removed on a magnetic separator. Fifty micro liters of 5×TBSTT was added to each well. The beads were suspended by briefly shaking at 750 rpm. Next […] of TBSTT or CSF sample without globulomer was added to each well. The pulldown plate was sealed and incubated at 37° C. for 1 hour with shaking at 500 rpm. After incubation, the beads were washed 8 times with TBST on the plate washer. After the plate wash, residual TBST buffer was removed from the beads on the magnetic separator. […]
as §1

Aβ42 ASPD = biological target: T5, Aβ42 ASPD (Homo sapiens, UniProt P05067); experiment: Misfolded Protein Assay, LoD and capture in CSF: ASPD; format: binding
T5 construct: The Ab42 aggregates were prepared as previously described
Description: (§2) The Ab42 aggregates were prepared as previously described: fibrils were prepared per Stine et al (JBC 2003, 278, p11612), globulomers were prepared per Barghorn et al (J Neurology 2005 95 p834), ADDLs were prepared per Lambert et al (PNAS 1998, 95 p6448), and ASPDs were prepared per Noguchi et al (JBC 2009 284 p32895). Normal CSF was pooled from clinically characterized non-demented patient CSF samples. AD CSF was pooled from clinically-characterized AD patient samples. Alzheimer's Disease Brain Homogenate (ADBH) was prepared by sonication of clinically diagnosed AD patient brain samples in 0.2M.sucrose (1:10 w/v).
(§3) For the capture assay (Misfolded Protein Assay), aliquots of the beads (30 ul) were added to wells of a 96 well plate, followed by 125 ul of sample in 80:20 CSF:TBSTT. The plate was sealed and incubated for 1 h at 37 C with shaking. The plate was washed with TBST and the residual buffer removed. A denaturing solution (0.1 N NaOH) was added to each well and the plate heated to 80 C. for 30 min with shaking. After cooling the plate to RT, a neutralizing buffer (0.12 M NaH2PO3-0.4% TW20,) was added and the plate shaken briefly at RT. The assay was analyzed using the triplex Mesoscale Discovery ELISA kit for Aβ. The Aβ in the samples eluted from the beads were detected per the manufacturer's protocol.
(§4) For the Limit of Detection (LoD) studies, serial dilutions of each aggregate were spiked into CSF and were assayed per the protocol described above. The LoD was defined as 2× over background levels.
(§5) This pattern minors the capture selectivity observed when these species are tested with 3 ul of PSR1 beads and 1 ng/mL of aggregate.

Aβ42 Fibrils = biological target: T6, Aβ42 Fibrils (Homo sapiens, UniProt P05067); experiment: Misfolded Protein Assay, LoD and capture in CSF: fibrils; format: binding
T6 construct: The Ab42 aggregates were prepared as previously described
Description: as §2, §3, §4, §5

[3] = biological target: T7, Aβ40 aggregates in AD CSF (Homo sapiens, UniProt P05067); experiment: Discrimination between AD and normal CSF; format: binding; conditions: FIG. 39
T7 construct: from tissue; host or cells: pooled cerebrospinal fluid (normal or AD)
Description: as §2, §3
For discriminating between AD and normal CSF, pooled normal CSF or pooled Alzheimer's Disease patient CSF, were assayed per the protocol described above.

[4] = test system: Alzheimer's Disease Brain Homogenate (ADBH) Aβ aggregates; experiment: Misfolded Protein Assay, LoD in CSF: ADBH; format: binding, human; conditions: spiked into CSF; LoD = 2× over background
Description: as §2
as §3, with “protocol. […]” for “protocol.”

Aβ42 ADDL = Aβ42 ADDL (Homo sapiens, UniProt P05067); experiment: Misfolded Protein Assay, LoD and capture in CSF: ADDL; format: binding
Description: as §2, §3, §4, §5

Aβ42 Globulomer = biological target: T8, Aβ42 Globulomer (Homo sapiens, UniProt P05067); experiment: Misfolded Protein Assay, LoD and capture in CSF: globulomer; format: binding
T8 construct: beta amyloid (1-42) was monomerized with incubation in hexafluoroisopropanol
Description: as §2, §3, §4, §5

[5] = CSF, PSR1 beads treated with detergent post capture
[6] = pulldown CSF, PSR1 beads washed with 1% detergent
[7] = 3 ul of beads and 1 ng/mL of aggregate
[8] = spiked into CSF, LoD = 2× over background

FKFKKK
globulomer capture (Abeta 1-42 globulomer [1]): improved globulomer capture relative to nonaromatic residues
globulomer capture (Abeta 1-42 globulomer [2]): captured globulomers specifically

Nab-Nab-Nab-Nab-Nab-Nab-Nab [+++++++]
limit of detection for Aβ(1-42) capture (Aβ(1-42) aggregates): 1.6 mL/assay and 2.5 mL/assay
total Tau signal, AD vs normal brain homogenate (tau aggregates): higher signals in the AD samples relative to the normal brain homogenates

Polyethylene glycol sorbitan monolaurate [TW20]
detection of normal CSF Aβ42 (background) (normal CSF Aβ42): reduced the detection of normal CSF Aβ42 to the background levels observed when PSR1 is incubated with TBSTT buffer alone
LoD of globulomer (Cal) (Abeta 42 globulomer): 2.52 pg/mL
LoD of globulomer, RLU (S/N = 2) (Abeta 42 globulomer): 211 RLU
S/N at 25.3 pg/mL globulomer (Abeta 42 globulomer): 11.0
signal/noise of globulomer detection (Abeta 42 globulomer): improved the signal/noise of globulomer detection
detection of normal CSF Aβ40 (background) (normal CSF Aβ40): reduced the detection of normal CSF Aβ40 significantly

n-Tetradecyl-N,N-dimethyl-3-ammonio-1-propanesulfonate [ZW3-14]
detection of normal CSF Aβ42 (background) (normal CSF Aβ42): reduced the detection of normal CSF Aβ42 to the background levels observed when PSR1 is incubated with TBSTT buffer alone
Abeta 42 RLU, 0 ng/mL Abeta 42 globulomer, Average (normal CSF Aβ42; [5]): 110.0 RLU
signal/noise of globulomer detection (Abeta 42 globulomer): improved the signal/noise of globulomer detection; also recorded: improved the signal/noise ratio for Abeta 42 globulomer detection more significantly
S/N Abeta 42 globulomer-spiked/unspiked (Abeta 42 globulomer; 0.5 ng/mL vs 0 ng/mL globulomer): 7.7
S/N Abeta 42 globulomer-spiked/Abeta 40 (Abeta 42 globulomer; Abeta 42 RLU at 0.5 ng/mL over average Abeta 40 RLU): 2.2
Abeta 42 RLU, 0.5 ng/mL Abeta 42 globulomer, Average (Abeta 42 globulomer; [5]): 842.0 RLU
LoD of globulomer (Cal) (Abeta 42 globulomer; [6]): 2.33 pg/mL
LoD of globulomer, RLU (S/N = 2) (Abeta 42 globulomer; [6]): 199 RLU
S/N at 25.3 pg/mL globulomer (Abeta 42 globulomer; [6]): 10.3
detection of normal CSF Aβ40 (background) (normal CSF Aβ40): reduced the detection of normal CSF Aβ40 significantly

CC(=O)NC(Cc1ccccc1)C(=O)NC(CCCCN)C(=O)NC(Cc1ccccc1)C(=O)NC(CCCCN)C(=O)NC(CCCCN)C(=O)NC(CCCCN)C(=O)NCCCCCC(=O)NCCCCCC(=O)NC(CS)C(N)=O (stereo not drawn) [Ac-FKFKKK, Ac-FKFKKK-Ahx-Ahx-Cys-NH2] (Ac-FKFKKK[Ahx][Ahx]C-NH2; configuration not given here)
capture of ASPD (Aβ42 ASPD; [7]): 1321
LoD (Aβ42 ASPD; [8]): 300 pg/mL
capture of Fibril (Aβ42 Fibrils; [7]): 4138
LoD (Aβ42 Fibrils; [8]): 100 pg/mL
Aβ40 signal in pooled AD CSF relative to normal pool [3]: higher Aβ40 signal in positive pooled AD CSF relative to unmatched normal pool; also recorded: largest change in signal
LoD [4]: <10 pg/mL
capture of ADDL (Aβ42 ADDL; [7]): 1241
LoD (Aβ42 ADDL; [8]): 300 pg/mL
capture of Globulomer (Aβ42 Globulomer; [7]): 3409
LoD (Aβ42 Globulomer; [8]): 75 to 120 pg/mL

AKFKKK
globulomer capture (Abeta 1-42 globulomer [1]): improved globulomer capture relative to nonaromatic residues

— patent publication US20130109581A1, “POSITIVELY CHARGED SPECIES AS BINDING REAGENTS IN THE SEPARATION OF PROTEIN AGGREGATES FROM MONOMERS” (priority 2009, published 2013)
